In the supplement of paper PMC10307832:

Columns and labels:
Assay in all cases: relative viability (nuclei count vs DMSO), 5 days (fraction); higher = more cells survive
Tipifarnib + Palbociclib = compound: Cn1cncc1[C@@](N)(c1ccc(Cl)cc1)c1ccc2c(c1)c(-c1cccc(Cl)c1)cc(=O)n2C [Tipifarnib] + CC(=O)c1c(C)c2cnc(Nc3ccc(N4CCNCC4)cn3)nc2n(C2CCCC2)c1=O [Palbociclib] (partner 0.5 µM)
In short: (§1)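 For relative viability, nuclei counts in treated wells were divided by those in vehicle wells. Lung cancer cell lines had been pin-tool dosed in 1536-well plates the day after seeding and cultured for 5 days, then fixed and stained in one step (final 0.05% Triton X-100, 1% formaldehyde, 1 ug/ml Hoechst) and imaged at 4×. Doses were one drug alone or a fixed anchor-drug dose plus five library-drug doses (not always all listed) in √10 steps, and values are duplicate-plate medians.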

Tipifarnib + OSI-027 = compound: Cn1cncc1[C@@](N)(c1ccc(Cl)cc1)c1ccc2c(c1)c(-c1cccc(Cl)c1)cc(=O)n2C [Tipifarnib] + COc1cccc2cc(-c3nc([C@H]4CC[C@H](C(=O)O)CC4)n4ncnc(N)c34)[nH]c12 [OSI-027] (partner 0.5 µM)
In short: as §1

Tipifarnib + Foretinib = compound: Cn1cncc1[C@@](N)(c1ccc(Cl)cc1)c1ccc2c(c1)c(-c1cccc(Cl)c1)cc(=O)n2C [Tipifarnib] + COc1cc2c(Oc3ccc(NC(=O)C4(C(=O)Nc5ccc(F)cc5)CC4)cc3F)ccnc2cc1OCCCN1CCOCC1 [Foretinib] (partner 0.25 µM)
In short: as §1

Tipifarnib = compound: Cn1cncc1[C@@](N)(c1ccc(Cl)cc1)c1ccc2c(c1)c(-c1cccc(Cl)c1)cc(=O)n2C [Tipifarnib]
In short: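 A plate was accepted only when its control CV was below 25% and the cells had doubled at least once. Viability is defined from nuclear counts as treated wells divided by vehicle wells, with the median taken across plates. That median covers lung cancer cell lines grown in 1536-well plates, dosed by pinning at five √10-spaced library-drug concentrations, and counted in MetaXpress from 4× Hoechst images after 5 days.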

Row | Cell Line | relative viability (Tipifarnib + Palbociclib; first compound 0.01 µM) | relative viability (Tipifarnib + Palbociclib; first compound 0.03162 µM) | relative viability (Tipifarnib + Palbociclib; first compound 0.1 µM) | relative viability (Tipifarnib + Palbociclib; first compound 0.3162 µM) | relative viability (Tipifarnib + Palbociclib; first compound 1 µM) | relative viability (Tipifarnib + OSI-027; first compound 0.01 µM) | relative viability (Tipifarnib + OSI-027; first compound 0.03162 µM) | relative viability (Tipifarnib + OSI-027; first compound 0.1 µM) | relative viability (Tipifarnib + OSI-027; first compound 0.3162 µM) | relative viability (Tipifarnib + OSI-027; first compound 1 µM) | relative viability (Tipifarnib + Foretinib; first compound 0.01 µM) | relative viability (Tipifarnib + Foretinib; first compound 0.03162 µM) | relative viability (Tipifarnib + Foretinib; first compound 0.1 µM) | relative viability (Tipifarnib + Foretinib; first compound 0.3162 µM) | relative viability (Tipifarnib + Foretinib; first compound 1 µM) | relative viability (Tipifarnib; 0.01 µM) | relative viability (Tipifarnib; 0.03162 µM) | relative viability (Tipifarnib; 0.1 µM) | relative viability (Tipifarnib; 0.3162 µM) | relative viability (Tipifarnib; 1 µM)
1 | 201T | 0.352 | 0.373 | 0.357 | 0.341 | 0.354 | 0.706 | 0.805 | 0.692 | 0.46 | 0.368 | 1.13 | 1.09 | 1.02 | 0.839 | 0.875 | 0.999 | 1.02 | 0.932 | 0.893 | 0.669
2 | A-427 | 0.527 | 0.535 | 0.477 | 0.448 | 0.466 | 0.406 | 0.316 | 0.365 | 0.361 | 0.254 | 1.19 | 1.06 | 1.06 | 0.873 | 0.927 | 1.12 | 0.981 | 0.987 | 0.826 | 0.609
3 | ABC-1 | 0.733 | 0.689 | 0.694 | 0.639 | 0.604 | 0.554 | – | 0.414 | 0.32 | 0.267 | 1.28 | – | 0.965 | 0.762 | 0.843 | 0.959 | – | 0.88 | 0.756 | 0.663
4 | BEN | 0.587 | 0.475 | 0.488 | 0.455 | 0.451 | 0.296 | 0.289 | 0.303 | 0.262 | 0.309 | 0.609 | 0.686 | 0.529 | 0.484 | 0.379 | 1.2 | 1.03 | 0.926 | 0.853 | 0.752
5 | CAL-12T | 0.512 | 0.302 | 0.377 | 0.21 | 0.13 | 0.565 | 0.358 | 0.37 | 0.272 | 0.232 | 1.09 | 0.885 | 0.727 | 0.469 | 0.536 | 0.937 | 0.82 | 0.617 | 0.549 | 0.391
6 | COR-L23 | 0.302 | 0.222 | 0.198 | 0.153 | 0.173 | 0.572 | 0.36 | 0.261 | 0.24 | 0.202 | 1.14 | 0.839 | 0.699 | 0.618 | 0.579 | 1.04 | 0.803 | 0.681 | 0.622 | 0.467
7 | COR-L 105 | 0.403 | 0.385 | 0.416 | 0.408 | 0.365 | 0.759 | 0.588 | 0.5 | 0.427 | 0.417 | 1.18 | 0.872 | 0.897 | 0.504 | 0.604 | 0.935 | 0.807 | 0.734 | 0.696 | 0.571
8 | Calu-6 | – | – | – | – | – | – | – | – | – | – | 0.886 | 0.62 | 0.698 | 0.518 | 0.424 | 0.931 | 0.767 | 0.688 | 0.572 | 0.579
9 | ChaGo-K-1 | 0.996 | 0.937 | 0.932 | 0.885 | 0.758 | 0.483 | 0.548 | 0.602 | 0.442 | 0.332 | 1.06 | 0.873 | 0.848 | 0.852 | 0.665 | 0.993 | 1.02 | 1.08 | 0.928 | 0.547
10 | EBC-1 | – | – | – | – | – | – | – | – | – | – | 0.103 | 0.0929 | 0.0996 | 0.113 | 0.0971 | 0.837 | 0.383 | 0.353 | 0.257 | 0.259
11 | EKVX | 0.396 | 0.362 | 0.35 | 0.281 | 0.284 | 0.728 | 0.7 | 0.699 | 0.516 | 0.39 | 0.818 | 0.767 | 0.811 | 0.705 | 0.324 | 1.07 | 0.954 | 0.901 | 0.807 | 0.531
12 | EMC-BAC-2 | 0.501 | 0.469 | 0.494 | 0.463 | 0.465 | 0.365 | 0.3 | 0.364 | 0.3 | 0.266 | 1.06 | 0.921 | 1 | 0.9 | 0.82 | 0.997 | 0.936 | 0.82 | 0.809 | 0.529
13 | EPLC-272H | 0.358 | 0.265 | 0.328 | 0.298 | 0.263 | 0.276 | 0.229 | 0.247 | 0.267 | 0.212 | 0.68 | 0.631 | 0.569 | 0.443 | 0.257 | 0.995 | 0.761 | 0.818 | 0.618 | 0.238
14 | H3255 | 0.331 | 0.276 | 0.27 | 0.287 | 0.258 | 0.757 | 0.704 | 0.61 | 0.471 | 0.438 | 0.921 | 0.977 | 0.805 | 0.636 | 0.508 | 1.05 | 0.991 | 0.796 | 0.642 | 0.617
15 | HARA | 0.32 | 0.32 | 0.238 | 0.217 | 0.265 | 0.618 | 0.408 | 0.298 | 0.137 | 0.147 | 1.1 | 0.828 | 0.96 | 0.951 | 0.269 | 1.14 | 1.03 | 1.04 | 0.826 | 0.348
16 | HCC-15 | 0.694 | 0.653 | 0.566 | 0.417 | 0.405 | 0.555 | 0.467 | 0.293 | 0.255 | 0.191 | 0.967 | 0.917 | 0.785 | 0.635 | 0.595 | 0.846 | 0.835 | 0.699 | 0.551 | 0.271
17 | HCC-44 | 0.952 | 0.921 | 0.945 | 0.92 | 0.926 | 0.736 | 0.423 | 0.383 | 0.329 | 0.289 | – | – | – | – | – | 0.967 | 0.871 | 0.802 | 0.729 | 0.472
